The results in this text go back to ChEMBL document CHEMBL4396971, “Discovery of potent and orally bioavailable indazole-based glucagon receptor antagonists for the treatment of type 2 diabetes” (Bioorg Med Chem Lett, 2019).

Data set [1] is described as follows: Cmax in Sprague-Dawley rat at 2 mg/kg, iv or 10 mg/kg, po. The data set is classed as ADME, organism-based. The conditions noted are these: in vivo.
Data set [2] in a line: Stability in mouse liver microsomes assessed as parent compound remaining at 1 uM incubated for 10 mins. In kind it is ADME, Microsome. The settings on record: for remaining at 10 min, 1 µM: liver microsomes, read-out: Stability. For orientation: Microsomes from liver hold many membrane-bound enzymes, among them those of drug oxidation.
A short description of data set [3]: Clearance in Sprague-Dawley rat at 2 mg/kg, iv or 10 mg/kg, po. In kind it is ADME, organism-based. The conditions noted are these: in vivo.
The nature of data set [4]: Stability in dog liver microsomes assessed as parent compound remaining at 1 uM incubated for 10 mins. The data set is classed as ADME, Canis lupus familiaris, Microsome. The settings on record: liver microsomes, read-out: Stability.
Data set [5] can be described thus: Clearance in C57 mouse at 5 mg/kg, iv or 20 mg/kg, po. The data set is classed as ADME, organism-based. The conditions noted are these: in vivo.
Data set [6] can be described thus: AUClast in dog at 2 mg/kg, iv or 10 mg/kg, po. The conditions noted are these: in vivo. In kind it is ADME, organism-based, Canis lupus familiaris.
Data set [7] in a line: AUClast in Sprague-Dawley rat at 2 mg/kg, iv or 10 mg/kg, po. In kind it is ADME, organism-based. The conditions noted are these: in vivo.
Data set [8] in a line: Volume of distribution at steady state in Sprague-Dawley rat at 2 mg/kg, iv or 10 mg/kg, po. The data set is classed as ADME, organism-based. The settings on record: in vivo, read-out: Vdss.
For data set [9], the system named is Canis familiaris. The data set can be described thus: Antidiabetic activity in Beagle dog assessed as reduction in blood glucose AUC at 10 mg/kg, po administered via gavage as single dose 90 mins prior to glucagon challenge by glucometer analysis. The data set is classed as functional, organism-based. The settings on record: Canis lupus familiaris.
For a further data set, the target named is Glucagon receptor (Homo sapiens, UniProt P47871). The data set can be described thus: Inhibition of human full length GCGR transfected in HEK293 cells assessed as reduction in glucagon-induced cAMP response by LANCE TR-FRET assay. In kind it is functional, cell-based. A general note: TR-FRET usually uses a lanthanide donor and a delayed reading to cut background.
Sequence of Glucagon receptor (P47871 whole entry): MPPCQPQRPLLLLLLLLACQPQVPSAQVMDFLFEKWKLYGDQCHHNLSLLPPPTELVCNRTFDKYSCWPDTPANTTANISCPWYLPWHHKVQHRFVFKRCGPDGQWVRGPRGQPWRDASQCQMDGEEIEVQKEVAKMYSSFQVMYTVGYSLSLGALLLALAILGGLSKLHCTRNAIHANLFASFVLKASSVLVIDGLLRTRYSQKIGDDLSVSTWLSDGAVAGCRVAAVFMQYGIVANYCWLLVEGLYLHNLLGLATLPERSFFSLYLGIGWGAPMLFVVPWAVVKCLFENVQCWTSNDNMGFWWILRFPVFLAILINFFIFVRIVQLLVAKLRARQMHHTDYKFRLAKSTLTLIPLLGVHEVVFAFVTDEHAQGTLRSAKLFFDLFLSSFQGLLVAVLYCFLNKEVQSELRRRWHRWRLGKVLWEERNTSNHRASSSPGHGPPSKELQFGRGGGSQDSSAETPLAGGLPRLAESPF

Data set [10] in a line: Half life in C57 mouse at 20 mg/kg, po. In kind it is ADME, organism-based. The conditions noted are these: in vivo.
A short description of data set [11]: Half life in dog at 10 mg/kg, po. The data set is classed as ADME, organism-based, Canis lupus familiaris. The settings on record: in vivo.
Data set [12] can be described thus: Stability in human liver microsomes assessed as parent compound remaining at 1 uM incubated for 10 mins. The data set is classed as ADME, Microsome. The conditions noted are these: read-out: Stability.
Data set [13] can be described thus: Oral bioavailability in C57 mouse at 20 mg/kg. The conditions noted are these: in vivo. In kind it is ADME, organism-based.
Data set [14] in a line: Half life in Sprague-Dawley rat at 2 mg/kg, iv. In kind it is ADME, organism-based. The conditions noted are these: in vivo.
A short description of data set [15]: AUClast in C57 mouse at 5 mg/kg, iv or 20 mg/kg, po. In kind it is ADME, organism-based. The settings on record: in vivo.
Data set [16] in a line: Oral bioavailability in Sprague-Dawley rat at 10 mg/kg. The data set is classed as ADME, organism-based. The settings on record: in vivo.
Data set [17] is described as follows: Half life in Sprague-Dawley rat at 10 mg/kg, po. The conditions noted are these: in vivo. The data set is classed as ADME, organism-based.
Data set [18] is described as follows: Half life in dog at 2 mg/kg, iv. The data set is classed as ADME, organism-based, Canis lupus familiaris. The conditions noted are these: in vivo.
The nature of data set [19]: Stability in rat liver microsomes assessed as parent compound remaining at 1 uM incubated for 10 mins. In kind it is ADME, Microsome. The conditions noted are these: read-out: Stability.
A further data set concerns the target T1, Cytochrome P450 1A2 (Homo sapiens, UniProt P05177).
T1 sequence (P05177 whole entry): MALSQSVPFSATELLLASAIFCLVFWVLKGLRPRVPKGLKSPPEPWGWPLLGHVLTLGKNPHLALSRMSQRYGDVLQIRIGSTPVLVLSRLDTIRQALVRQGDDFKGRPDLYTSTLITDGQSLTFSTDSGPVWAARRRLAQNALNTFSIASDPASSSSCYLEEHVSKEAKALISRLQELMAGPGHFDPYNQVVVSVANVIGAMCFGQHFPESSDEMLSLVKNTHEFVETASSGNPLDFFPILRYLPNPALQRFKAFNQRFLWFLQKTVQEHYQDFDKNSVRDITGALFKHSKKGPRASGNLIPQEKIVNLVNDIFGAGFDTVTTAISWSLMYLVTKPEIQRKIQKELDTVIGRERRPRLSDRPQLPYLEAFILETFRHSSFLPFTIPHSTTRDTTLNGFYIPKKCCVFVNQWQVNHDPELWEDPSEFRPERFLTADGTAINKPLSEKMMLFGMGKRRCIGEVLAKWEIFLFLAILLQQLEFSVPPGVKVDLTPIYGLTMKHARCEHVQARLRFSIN
The data set can be described thus: Inhibition of CYP1A2 (unknown origin) using phenacetin as substrate. The data set is classed as ADME.

Data set [20] is described as follows: Volume of distribution at steady state in dog at 2 mg/kg, iv or 10 mg/kg, po. The settings on record: in vivo, read-out: Vdss. The data set is classed as ADME, organism-based, Canis lupus familiaris.
A further data set concerns the target Cytochrome P450 2C9 (Homo sapiens, UniProt P11712). Nature of the data set: Inhibition of CYP2C9 (unknown origin) using tolbutamide as substrate. In kind it is ADME.
Data set [21] is described as follows: Volume of distribution at steady state in C57 mouse at 5 mg/kg, iv or 20 mg/kg, po. In kind it is ADME, organism-based. The conditions noted are these: in vivo, read-out: Vdss.
The nature of data set [22]: Cmax in dog at 2 mg/kg, iv or 10 mg/kg, po. The conditions noted are these: in vivo. In kind it is ADME, organism-based, Canis lupus familiaris.
Data set [23] has as its system Canis familiaris. Nature of the data set: Antidiabetic activity in Beagle dog assessed as reduction in blood glucose level at 10 mg/kg, po administered via gavage as single dose 90 mins prior to glucagon challenge measured up to 60 mins post glucagon challenge by glucometer analysis. The data set is classed as functional, organism-based. The settings on record: Canis lupus familiaris.

Data set [24] can be described thus: Protein binding in human plasma at 1 uM. The settings on record: read-out: PPB. In kind it is ADME, cell-free.
The nature of data set [25]: Oral bioavailability in dog at 10 mg/kg. In kind it is ADME, organism-based, Canis lupus familiaris. The settings on record: in vivo.
In the next data set the target is Cytochrome P450 2D6 (Homo sapiens, UniProt P10635). Nature of the data set: Inhibition of CYP2D6 (unknown origin) using dextromethorphan as substrate. The data set is classed as ADME.
Sequence of Cytochrome P450 2D6 (P10635 whole entry): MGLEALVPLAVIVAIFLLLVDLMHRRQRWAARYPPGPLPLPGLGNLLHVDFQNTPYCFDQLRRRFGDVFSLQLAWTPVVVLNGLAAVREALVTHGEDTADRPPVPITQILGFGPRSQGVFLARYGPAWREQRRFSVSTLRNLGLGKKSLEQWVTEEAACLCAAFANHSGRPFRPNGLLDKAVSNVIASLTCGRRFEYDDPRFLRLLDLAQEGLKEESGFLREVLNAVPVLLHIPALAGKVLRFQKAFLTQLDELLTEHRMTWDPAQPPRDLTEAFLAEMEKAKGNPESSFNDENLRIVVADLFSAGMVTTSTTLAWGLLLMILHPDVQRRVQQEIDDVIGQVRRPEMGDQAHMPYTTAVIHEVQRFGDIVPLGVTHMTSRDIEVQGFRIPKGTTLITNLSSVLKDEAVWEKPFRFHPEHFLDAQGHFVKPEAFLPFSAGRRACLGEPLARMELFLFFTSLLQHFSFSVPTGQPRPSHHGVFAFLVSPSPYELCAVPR
Data set [26] is described as follows: Antagonist activity at GCGR in dog hepatocytes assessed as inhibition of glucagon-induced cAMP by LANCE TR-FRET assay. The data set is classed as cell-based, Canis lupus familiaris.
In data set [27] the target is T2, Cytochrome P450 3A4 (Homo sapiens, UniProt P08684). The data set can be described thus: Inhibition of CYP3A4 (unknown origin) using midazolam as substrate. The data set is classed as ADME.
T2 sequence (P08684 whole entry): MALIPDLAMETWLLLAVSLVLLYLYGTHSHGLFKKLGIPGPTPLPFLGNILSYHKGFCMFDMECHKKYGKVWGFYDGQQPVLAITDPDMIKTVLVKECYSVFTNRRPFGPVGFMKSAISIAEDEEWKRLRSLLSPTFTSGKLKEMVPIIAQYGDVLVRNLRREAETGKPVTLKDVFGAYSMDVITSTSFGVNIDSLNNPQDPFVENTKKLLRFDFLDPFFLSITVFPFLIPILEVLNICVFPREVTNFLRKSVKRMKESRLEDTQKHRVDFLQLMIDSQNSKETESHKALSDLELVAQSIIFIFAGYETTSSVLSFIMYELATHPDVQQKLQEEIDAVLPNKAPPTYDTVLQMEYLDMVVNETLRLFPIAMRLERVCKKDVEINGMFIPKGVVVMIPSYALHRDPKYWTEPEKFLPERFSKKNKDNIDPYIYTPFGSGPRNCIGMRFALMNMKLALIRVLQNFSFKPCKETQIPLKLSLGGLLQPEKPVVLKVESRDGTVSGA
Data set [28] addresses T2, Cytochrome P450 3A4. The data set can be described thus: Inhibition of CYP3A4 (unknown origin) using testosterone as substrate. The data set is classed as ADME.
Data set [29] is described as follows: Clearance in dog at 2 mg/kg, iv or 10 mg/kg, po. In kind it is ADME, organism-based, Canis lupus familiaris. The conditions noted are these: in vivo.
A short description of data set [30]: Half life in C57 mouse at 5 mg/kg, iv. The settings on record: in vivo. In kind it is ADME, organism-based.
Data set [31] is described as follows: Cmax in C57 mouse at 5 mg/kg, iv or 20 mg/kg, po. In kind it is ADME, organism-based. The settings on record: in vivo.
The target in the next data set is Cytochrome P450 2C19 (Homo sapiens, UniProt P33261). The data set can be described thus: Inhibition of CYP2C19 (unknown origin) using S-Mephenytoin as substrate. In kind it is ADME.
Sequence of Cytochrome P450 2C19 (P33261 whole entry): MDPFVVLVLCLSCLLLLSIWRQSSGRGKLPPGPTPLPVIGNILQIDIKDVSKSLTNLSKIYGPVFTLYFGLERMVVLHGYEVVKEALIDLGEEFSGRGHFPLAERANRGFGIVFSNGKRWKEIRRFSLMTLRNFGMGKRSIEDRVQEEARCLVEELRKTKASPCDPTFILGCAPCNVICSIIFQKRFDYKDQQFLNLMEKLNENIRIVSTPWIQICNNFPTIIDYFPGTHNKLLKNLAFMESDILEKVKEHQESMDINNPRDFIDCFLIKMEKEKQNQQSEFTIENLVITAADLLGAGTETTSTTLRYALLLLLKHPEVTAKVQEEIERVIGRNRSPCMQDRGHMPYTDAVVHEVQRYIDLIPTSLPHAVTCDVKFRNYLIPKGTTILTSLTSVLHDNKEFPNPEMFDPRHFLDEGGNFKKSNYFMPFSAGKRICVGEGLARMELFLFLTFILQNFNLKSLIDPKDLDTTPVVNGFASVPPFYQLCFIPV

SMILES strings stand for the structures. Active and inactive are the calls of the source. The rule behind the calls is not given here.

Sequence of Cytochrome P450 2C9 (P11712 whole entry): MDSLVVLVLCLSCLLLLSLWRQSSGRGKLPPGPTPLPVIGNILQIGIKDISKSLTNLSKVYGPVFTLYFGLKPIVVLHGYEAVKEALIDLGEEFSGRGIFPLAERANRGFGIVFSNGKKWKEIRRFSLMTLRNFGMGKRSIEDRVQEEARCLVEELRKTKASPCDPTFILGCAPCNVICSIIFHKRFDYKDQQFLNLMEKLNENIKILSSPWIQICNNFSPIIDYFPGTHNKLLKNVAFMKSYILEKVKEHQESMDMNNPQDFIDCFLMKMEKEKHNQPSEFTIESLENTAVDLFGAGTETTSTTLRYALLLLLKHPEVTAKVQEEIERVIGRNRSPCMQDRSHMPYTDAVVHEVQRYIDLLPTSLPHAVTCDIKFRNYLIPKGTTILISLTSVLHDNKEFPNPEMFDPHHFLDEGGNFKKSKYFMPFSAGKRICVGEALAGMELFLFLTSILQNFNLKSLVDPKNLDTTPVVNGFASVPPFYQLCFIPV

On to `Cc1c(-c2ccc(C(F)(F)F)cc2Cl)ccc2nn([C@@H](CC(C)C)c3ccc(C(=O)NCCC(=O)O)cc3)cc12`, for which the Cmax in [1] turned out to be 0.2 µM; in data set [22], 21.9 µM; in data set [31], 7.6 µM. Further, the remaining at 10 min, 1 µM stood at 97% in [2], 75% in data set [4], 118% in [12] and 107% in data set [19]. Besides, the clearance in data set [3] came out at 26.5 mL/min/kg; in data set [5] it was 10.2 mL/min/kg; in [29] it was 0.42 mL/min/kg. The AUC(0-t) in [6] is 248 µM·h; in data set [7] it was 1.4 µM·h; in data set [15], 44.9 µM·h. Besides, the Vd in data set [8] was determined as 2.46 L/kg; in data set [20] it was 0.17 L/kg; in [21] it was 2.24 L/kg. The inhibition entry with Canis familiaris [9] and in the data set on Canis familiaris [23] was “Active” in each case. Besides, the Ki worked out at 0.023 µM on Glucagon receptor and 0.09 µM in [26]. Moreover, the half-life in data set [10] is 3.1 h; in [11], 7.3 h; in data set [14] it was 1.9 h; in data set [17], 7.7 h; in data set [18], 5.5 h; in data set [30], 2.8 h. The figures for the bioavailability in [13], in data set [16] and in data set [25] were 78.6%, 13.2% and 35.7%, respectively. Moreover, the IC50 at Cytochrome P450 1A2, at Cytochrome P450 2C9, against Cytochrome P450 2D6, at Cytochrome P450 3A4 [27], on Cytochrome P450 3A4 [28] and on Cytochrome P450 2C19 was more than 10 µM each time. Moreover, in data set [24], the fraction unbound at 1 µM was 0.0001.
Regarding `Cc1cc(C(F)(F)F)ccc1-c1cc2cnn([C@@H](CC(C)C)c3ccc(C(=O)NCCC(=O)O)cc3)c2cc1C`, the figures for the Cmax in data set [1], in data set [22] and in data set [31] were 0.8 µM, 27.7 µM and 18.9 µM, respectively. Besides, the remaining at 10 min, 1 µM stood at 70% in data set [2], 80% in [4], 81% in [12] and 116% in [19]. Besides, the clearance in data set [3] stood at 26.8 mL/min/kg; in data set [5], 1.61 mL/min/kg; in data set [29], 0.21 mL/min/kg. Moreover, the AUC(0-t) in data set [6] turned out to be 422 µM·h; in data set [7], 6.5 µM·h; in data set [15], 242 µM·h. In addition, the Vd in data set [8] was 2.67 L/kg; in [20], 0.22 L/kg; in data set [21], 0.87 L/kg. Moreover, the inhibition result in the data set with Canis familiaris [9] and with Canis familiaris [23] was “Active” throughout. Besides, the half-life in data set [10] is 6.5 h; in [11], 16.9 h; in [14] it was 1.6 h; in [17], 3.1 h; in data set [18] it was 13.3 h; in [30], 7.2 h. Also, the values for the bioavailability in [13], in [16] and in [25] were 70.1%, 51.9% and 39.5%, respectively. Moreover, the 50% inhibitory concentration (IC50) at Cytochrome P450 1A2, at Cytochrome P450 2C9, on Cytochrome P450 2D6, at Cytochrome P450 3A4 [27], at Cytochrome P450 3A4 [28] and on Cytochrome P450 2C19 was more than 10 µM in each case. Besides, the fraction unbound at 1 µM in [24] was determined as 0.0001. The Ki in data set [26] stood at 0.03 µM.
For `Cc1cc(C(F)(F)F)ccc1-c1ccc2nn([C@@H](CC(C)C)c3ccc(C(=O)NCCC(=O)O)cc3)cc2c1C`, the remaining at 10 min, 1 µM in [2] was found to be 50%; in data set [4] it was 64%; in data set [12], 110%; in data set [19], 107%.
The corresponding values for `COc1c(-c2ccc(C(F)(F)F)cc2Cl)ccc2c1cnn2[C@@H](CC(C)C)c1ccc(C(=O)NCCC(=O)O)cc1` are 87%, 64%, 93% and 97%.
For `Cc1c(-c2ccc(C(F)(F)F)cc2Cl)ccc2c1cnn2[C@@H](CC(C)C)c1ccc(C(=O)NCCC(=O)O)cc1`, the Stability in data set [2] (microsomes, 10 min, 1 µM) is on record as 121%. The values for the remaining at 10 min, 1 µM in [4], in [12] and in data set [19] were 31%, 89% and 87%, respectively.
In the case of `CC(C)CC(c1ccc(C(=O)NCCC(=O)O)cc1)n1ncc2cc(-c3ccc(C(F)(F)F)cc3)ccc21` (racemic), the Ki at Glucagon receptor is 0.125 µM.

Broadly, the Cmax is the maximum level reached in the sampled fluid or tissue. The term AUC(0-t) denotes the area under the concentration-time curve up to a stated or last time point. A word on the Ki: it is a dissociation constant, usually derived from enzyme kinetics or from competition with a known ligand. The term half-life denotes the time in which the quantity being followed falls by half. As a reminder, the bioavailability is the share of a dose that reaches the circulation, judged against a reference dose that is usually intravenous. Read a high bioavailability as much systemic uptake. For orientation: IC50 means the concentration that inhibits the measured activity by half. Read a low IC50 as greater potency.
